Reference: US10624852B2, “Liposomes comprising a calcium phosphate-containing precipitate” (The University of North Carolina at Chapel Hill, priority 2009, dated 2020)
Non-standard residues stand in square brackets, D forms with d. No end group written: not given here. pY = N[C@@H](Cc1ccc(OP(=O)(O)O)cc1)C(=O)O

Assays:
[1] = Trapping / encapsulation efficiency; format: physicochemical; details: cargo encapsulated in LCP-II
Description: To […] calculate the trapping efficiency of siRNA in the LCP nanoparticles, the anti-luciferase siRNA was replaced with a carboxyfluoroscein (FAM)-labeled siRNA having the same sequence (Dharmacon Inc, Lafayette, Colo.). The FAM-labeled siRNA LCP nano-particles were dissolved in lysis buffer (2 mM EDTA and 0.05% Trixton-100 in pH 7.8 Tris buffer) for quantitative analysis of the siRNA encapsulation efficiency. Standard siRNA solutions were prepared by diluting the FAM-labeled siRNA in the same lysis buffer. Then, 100 μl of the standard siRNA solution or the LCP solution was added to a 96-well plate and the fluorescence intensity was measured at 525 nm with a plate reader (Plate Chameleon Multilabel Detection Platform, Bioscan Inc., Washington D.C.). The amount of entrapped siRNA in the LCP nanoparticles was calculated based on the standard calibration curve.

H-460 cells = assay: Calcium release in live cells (Fura-2 imaging); format: cell-based, human; details: 20 μM cytochalasin D, cells with LCP nanoparticles
Description: Two μl of 2 mM Fura-2 AM and 2 μl of 20% Pluronic-127 were mixed for 5 min and added to 1 ml phenol red free DMEM cell culture medium before use. About 5×10^4 H-460 cells were incubated in a Lab-Tek 8-well glass chamber slide system (Fisher, Pittsburgh, Pa.) for 24 h. Two hundred μl of a 2 μM Fura-2 AM solution was added to the cell culture chamber, followed by a 50 min incubation. After washing two times with PBS, the cells were incubated in phenol red-free DMEM cell culture medium and imaged with a Nikon TE2000U microscope and OrcaER camera. Emission was monitored at 510 nm with an alternating excitation wavelength of 340 nm and 380 nm from a Xenon light source. After adding 50 μl of LCP nanoparticles, fluorescence image was obtained by setting the excitation wavelength at 340 nm for green color and 380 nm for red color. The ratio of 340 nm/380 nm was proportional to the intracellular free Ca^2+ concentration (Hirst et al. (1999) Methods Mol Biol 114:31-39). All experiments were performed at room temperature.
To study the inhibition of endocytosis, 20 mM cytochalasin D was prepared in DMSO solution and freshly diluted 1,000 times by phenol red-free DMEM medium for use. After incubating with Fura-2 AM for 60 min and 20 μM cytochalasin D for 5 min, cells were imaged as described in the presence of LCP nanoparticles.

Nc1ccn([C@@H]2O[C@H](COP(=O)(O)O)[C@@H](O)[C@@H]2O)c(=O)n1 [AraC monophosphate]
trapping efficiency in LCP-II nanoparticles [1]: about 94%

C=C1[C@@H](C)[C@H]2[C@H](Cc3ccccc3)NC(=O)[C@]23[C@H](OC(C)=O)/C=C/[C@@](C)(O)C(=O)[C@@H](C)C/C=C/[C@H]3[C@@H]1O [cytochalasin D]
effect on LCP-induced color change (endocytosis inhibition) (H-460 cells): significantly reduced the color change

Nc1ccn(C2OC(COP(=O)(O)O)[C@H](O)C2(F)F)c(=O)n1 (some centres unmarked) [gemcitabine monophosphate, Gemcitabine monophosphate]
trapping efficiency in LCP-II nanoparticles [1]: ~88%

O=C([O-])c1ccccc1-c1c2ccc(=O)cc-2oc2cc([O-])ccc12.[Na+].[Na+] [sodium fluorescein, reference compound]
trapping efficiency in LCP-II nanoparticles [1]: about 40%

EEEEpYFELV (EEEE[pY]FELV) [peptide wherein the tyrosine (Y) is phosphorylated]
trapping efficiency in LCP-II nanoparticles [1]: ~82%
